Tests used:
[1] = tested on: HeLa; test: cells; details: Homo sapiens, 48 h
Description: Antitumor activity against human HeLa cells assessed as inhibition of cell viability incubated for 48 hrs by MTT assay

[2] = tested on: MCF7; test: cells; details: Homo sapiens, MCF7, 48 h
Description: Antitumor activity against human MCF7 cells assessed as inhibition of cell viability incubated for 48 hrs by MTT assay

[3] = tested on: HepG2; test: cells; details: Homo sapiens, HepG2, 48 h
Description: Antitumor activity against human HepG2 cells assessed as inhibition of cell viability incubated for 48 hrs by MTT assay

[4] = tested on: HEp-2; test: cells; details: Homo sapiens, HEp-2, 48 h
Description: Antitumor activity against human HEp-2 cells assessed as inhibition of cell viability incubated for 48 hrs by MTT assay

[5] = tested on: HCT-116; test: cells; details: Homo sapiens, HCT-116, 48 h
Description: Antitumor activity against human HCT-116 cells assessed as inhibition of cell viability incubated for 48 hrs by MTT assay

[6] = tested on: WI-38; test: Cytotoxicity against human WI-38 cells up to 50 uM incubated for 48 hrs by MTT assay; assay type: toxicity, cell-based; details: wi-38, 48 h
[7] = Cytotoxicity against human WI-38 cells incubated for 48 hrs by MTT assay; assay type: toxicity, cell-based
[8] = tested on: WISH; test: Cytotoxicity against human WISH cells at up to 50 uM incubated for 48 hrs by MTT assay; assay type: toxicity, cell-based
[9] = Cytotoxicity against human WISH cells incubated for 48 hrs by MTT assay; assay type: toxicity, cell-based

SMILES	IC50 [1]	IC50 [2]	IC50 [3]	IC50 [4]	IC50 [5]	Activity [6]	IC50 at 48 h [7]	Activity [8]	IC50 at 48 h [9]
CN1CCN(CC(=O)Nc2nc(Nc3ccccc3)sc2C#N)CC1	67.8 µM	52.7 µM	73.2 µM	94.7 µM	70.5 µM				
N#Cc1sc(Nc2ccccc2)nc1NC(=O)CNNCC(=O)c1ccc(Br)cc1	43.4 µM	35.6 µM	46.1 µM	49.1 µM	34.9 µM				
N#Cc1sc(Nc2ccccc2)nc1NC(=O)CNNC(=O)c1ccc(Cl)cc1	86.8 µM	64.8 µM	89.9 µM	> 100 µM	91.9 µM				
N#Cc1sc(Nc2ccccc2)nc1NC(=O)CNNCC(=O)c1cc2ccccc2oc1=O	45.5 µM	34.1 µM	49.4 µM	67.2 µM	37.6 µM				
COc1cccc2c1C(=O)c1c(O)c3c(c(O)c1C2=O)C[C@@](O)(C(=O)CO)C[C@@H]3O[C@H]1C[C@H](N)[C@H](O)[C@H](C)O1 [DOXORUBICIN]						Non-toxic		Non-toxic	3.34 µM
N#Cc1sc(Nc2ccccc2)nc1N1CSCC1=O	94.3 µM	72.8 µM	91.5 µM	> 100 µM	86.5 µM				

Continued, in another order:

IC50 [1]	IC50 [2]	IC50 [3]	IC50 [4]	IC50 [5]	SMILES	Activity [6]	IC50 at 48 h [7]	Activity [8]	IC50 at 48 h [9]
36.7 µM	33.5 µM	38.5 µM	45.8 µM	31.1 µM	N#Cc1sc(Nc2ccccc2)nc1NC(=O)CN1CCOCC1				
16.4 µM	14.8 µM	20.1 µM	39.7 µM	25.8 µM	N#Cc1sc(Nc2ccccc2)nc1Nc1cnc(N)o1	Non-toxic	27.5 µM	Non-toxic	24 µM
38.5 µM	19.1 µM	42.4 µM	73.5 µM	51.7 µM	N#Cc1sc(Nc2ccccc2)nc1NC(=O)CN1CCN(c2ccccc2)CC1				
33.3 µM	26.2 µM	35.8 µM	43.6 µM	29.3 µM	N#Cc1sc(Nc2ccccc2)nc1NC(=O)CNNCc1ccc([N+](=O)[O-])cc1				
22.8 µM	16.7 µM	30.5 µM	28.8 µM	14.2 µM	N#Cc1sc(Nc2ccccc2)nc1NC(=O)CN1CCCCC1	Non-toxic	23.7 µM	Non-toxic	21.2 µM
